Reference: the NIST ThermoML archive (doi:10.1016/j.jct.2008.05.010)
Numbers after ± are expanded uncertainties.

What was measured:
[1] = 298.15 K; 101.33 kPa; Liquid
[2] = refractive index (Na D-line) (dimensionless); details: 298.15 K; 101.33 kPa; Liquid; Standard Abbe refractometry

| SMILES | mass density [1] | refractive index [2] |
| --- | --- | --- |
| CC(=O)N(C)C [N,N-dimethylethanamide] | 936.44 ± 0.13 kg/m3 | 1.4362 ± 0.0007 |
| CNC=O [N-methylformamide] | 998.97 ± 0.39 kg/m3 | 1.4303 ± 0.0007 |
| CC(C)=O [acetone] | 784.59 ± 0.24 kg/m3 | 1.3564 ± 0.0007 |
| C[S+](C)[O-] [dimethyl sulfoxide] | 1095.66 ± 0.15 kg/m3 | 1.4771 ± 0.0007 |
| CN(C)C=O [dimethylformamide] | 943.87 ± 0.26 kg/m3 | 1.4279 ± 0.0007 |
| NC=O [formamide] | 1129.11 ± 0.4 kg/m3 | 1.4463 ± 0.0007 |
